Assay results published in ChEMBL document CHEMBL5365435, “Design, Synthesis, and Biological Evaluation of Thioglucoside Analogues of Gliflozin as Potent New Gliflozin Drugs” (J Med Chem, 2023).
Active and inactive are the calls of the source. The calls are words filed in the database; no cut-off is given here.

Experiments:
[1] = biological target: T1, Sodium/glucose cotransporter 2 (Homo sapiens) (UniProt P31639); assay: Inhibition of SGLT2 in HEK293 cells assessed as 2-NBDG uptake at 100 uM preincubated for 1 hr followed by 2-NBDG addition and measured after 1 hr relative to control; type: cell-based; details: time 2.0 hrs
T1 sequence (whole entry): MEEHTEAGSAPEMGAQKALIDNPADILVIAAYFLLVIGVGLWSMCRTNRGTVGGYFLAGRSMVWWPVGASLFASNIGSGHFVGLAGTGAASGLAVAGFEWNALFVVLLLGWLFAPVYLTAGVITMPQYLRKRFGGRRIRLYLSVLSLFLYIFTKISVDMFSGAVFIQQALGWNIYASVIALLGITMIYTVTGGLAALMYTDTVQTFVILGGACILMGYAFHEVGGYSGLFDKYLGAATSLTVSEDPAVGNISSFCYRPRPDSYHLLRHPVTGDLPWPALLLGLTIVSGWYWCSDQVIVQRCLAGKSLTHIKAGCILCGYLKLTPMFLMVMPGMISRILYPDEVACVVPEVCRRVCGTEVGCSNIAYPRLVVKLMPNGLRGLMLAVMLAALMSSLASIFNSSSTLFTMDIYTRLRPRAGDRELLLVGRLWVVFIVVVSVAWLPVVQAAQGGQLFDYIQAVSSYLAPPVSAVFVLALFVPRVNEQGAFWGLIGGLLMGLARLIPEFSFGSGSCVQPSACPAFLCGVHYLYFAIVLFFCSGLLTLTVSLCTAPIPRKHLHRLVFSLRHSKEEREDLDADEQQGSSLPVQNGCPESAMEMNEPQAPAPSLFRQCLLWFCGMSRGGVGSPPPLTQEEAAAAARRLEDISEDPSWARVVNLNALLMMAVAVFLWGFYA

HEK293 = assay: Cytotoxicity against HEK293 cells at 100 uM incubated for 24 hrs by MTT assay; type: toxicity, cell-based; details: human, hek293, 24 h
[2] = biological target: T2, Sodium/glucose cotransporter 2 (Homo sapiens, UniProt P31639); assay: Inhibition of SGLT2 (unknown origin)
T2 sequence (P31639 whole entry): T1 sequence (whole entry)

Mus musculus [3] = assay: Antidiabetic activity against C57BL/6J mouse assessed as decrease in blood glucose level at 3 mg/kg, po measured upto 8 hrs by glucometer analysis; type: functional, organism-based
Mus musculus [4] = assay: Antidiabetic activity against C57BL/6J mouse assessed as decrease in renal glucose level at 3 mg/kg, po measured upto 8 hrs by glucometer analysis; type: functional, organism-based
[5] = Half life in mouse at 3 mg/kg, po by LC analysis; type: ADME, organism-based; details: in vivo
[6] = AUCinfinity in mouse at 3 mg/kg, po by LC analysis; type: ADME, organism-based; set-up: dose 3 mg/kg, route po; details: in vivo
[7] = Cmax in mouse at 3 mg/kg, po by LC analysis; type: ADME, organism-based; set-up: dose 3 mg/kg, route po; details: in vivo
[8] = Tmax in mouse at 3 mg/kg, po by LC analysis; type: ADME, organism-based; details: in vivo
[9] = biological target: T1, Sodium/glucose cotransporter 2 (Homo sapiens); assay: Inhibition of SGLT2 (unknown origin) at 100 uM relative to control

Row | Compound | inhibition [1] | IC50 [2] | Activity (HEK293) | other results
1 | Cc1ccc(S[C@@H]2O[C@H](CO)[C@@H](O)[C@H](O)[C@H]2O)cc1Cc1ccc(-c2ccc(F)cc2)s1 | 54% | – | Non-Toxic | –
2 | OC[C@H]1O[C@@H](c2ccc(Cl)c(Cc3ccc(O[C@H]4CCOC4)cc3)c2)[C@H](O)[C@@H](O)[C@@H]1O | – | – | – | Activity (Mus musculus [3]): Active; Activity (Mus musculus [4]): Active
3 | OC[C@H]1O[C@@H](Sc2cccc(Cl)c2Cc2ccc(O[C@H]3CCOC3)cc2)[C@H](O)[C@@H](O)[C@@H]1O | > 90% | 2 nM | Non-Toxic | Activity (Mus musculus [3]): Active; half-life [5]: 3.67 h; AUC(0-inf) [6]: 12800 ng·h/mL; Activity (Mus musculus [4]): Active; Cmax [7]: 4200 ng/mL; Tmax [8]: 1 h
4 | OC[C@H]1O[C@@H](Sc2ccc(Cl)c(Cc3ccc(O[C@H]4CCOC4)cc3)c2)[C@H](O)[C@@H](O)[C@@H]1O | 62% | – | Non-Toxic | inhibition [9]: 62%
5 | Cc1cccc(S[C@@H]2O[C@H](CO)[C@@H](O)[C@H](O)[C@H]2O)c1Cc1ccc(-c2ccc(F)cc2)s1 | > 90% | 2.5 nM | Non-Toxic | –

Second part, led by results:

Row | inhibition [1] | IC50 [2] | Compound | Activity (HEK293) | other results
6 | 57% | – | CCOc1ccc(Cc2cc(S[C@@H]3O[C@H](CO)[C@@H](O)[C@H](O)[C@H]3O)ccc2Cl)cc1 | Non-Toxic | –
7 | > 90% | 5.9 nM | COc1ccc(Cc2ccccc2S[C@@H]2O[C@H](CO)[C@@H](O)[C@H](O)[C@H]2O)cc1 | Non-Toxic | –
8 | – | 4.4 nM | Cc1cc(O)c(C(=O)CCc2ccc3occc3c2)c(O[C@@H]2O[C@H](CO)[C@@H](O)[C@H](O)[C@H]2O)c1 | – | –
9 | > 90% | 2.6 nM | CCOc1ccc(Cc2c(Cl)cccc2S[C@@H]2O[C@H](CO)[C@@H](O)[C@H](O)[C@H]2O)cc1 | Non-Toxic | –
10 | – | 7.5 nM | COc1ccc(Cc2ccccc2O[C@@H]2O[C@H](CO)[C@@H](O)[C@H](O)[C@H]2O)cc1 [SERGLIFLOZIN A] | – | –
11 | – | 7.5 nM | CCOC(=O)OC[C@H]1O[C@@H](Oc2ccccc2Cc2ccc(OC)cc2)[C@H](O)[C@@H](O)[C@@H]1O [SERGLIFLOZIN ETABONATE] | – | –
12 | > 90% | 2.4 nM | Cc1ccc([C@@H]2O[C@H](CO)[C@@H](O)[C@H](O)[C@H]2O)cc1Cc1ccc(-c2ccc(F)cc2)s1 [CANAGLIFLOZIN ANHYDROUS] | – | –
